Laboratory results: publication PMC6104039 (Nature Communications, 2018)
Read-outs that look alike come from different tables or passages of the source.

Key:
Format in all cases: biochemical
human CerS2 = molecular target: T1, human CerS2 (Homo sapiens, UniProt Q96G23); assay: Ceramide synthase assay, NBD-dihydrosphingosine, C24:1-CoA; HEK293 cells expressing human CerS2; settings: inhibitor range 10 nM–100 μM; read-out: IC50 hCerS2
T1 sequence (Q96G23 1-380): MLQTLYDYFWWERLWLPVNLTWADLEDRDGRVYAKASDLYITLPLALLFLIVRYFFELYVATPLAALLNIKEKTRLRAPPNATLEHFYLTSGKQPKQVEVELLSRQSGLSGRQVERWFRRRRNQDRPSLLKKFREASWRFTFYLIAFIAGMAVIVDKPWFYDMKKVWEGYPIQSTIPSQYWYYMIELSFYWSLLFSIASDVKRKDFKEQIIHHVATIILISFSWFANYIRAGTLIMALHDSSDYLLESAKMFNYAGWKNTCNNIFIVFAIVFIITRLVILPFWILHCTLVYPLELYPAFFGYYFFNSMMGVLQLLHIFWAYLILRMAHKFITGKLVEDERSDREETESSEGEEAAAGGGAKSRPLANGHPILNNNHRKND
Procedure: (§1) Ceramide synthase assays were carried out using an HPLC-based assay with a fluorescent NBD-dihydrosphingosine substrate. All cell lines used for these assays were originally sourced from ATCC. […] Cells were sonicated in a Diagenode Bioruptor sonicating bath for 5 min, after which cell extracts were cleared by centrifugation at 800 × g for 10 min. Protein concentration in the supernatant was assayed using the bicinchoninic acid (BCA) assay, and the supernatant stored at −80 °C. COS cells were infected with lentiviral constructs expressing murine CerS1, 2, or 5, then homogenised as described above.
(§2) The reaction buffer consisted of 20 mM Hepes pH 7.4, 25 mM KCl, 2 mM MgCl2, 0.5 mM dithiothreitol, 0.1% fatty acid free BSA, 10 μM NBD-dihydrosphingosine and 50 μM fatty acid free BSA. C18:0-CoA was used as the fatty acyl substrate for CerS1 and CerS4; C24:1-CoA for CerS2; and C16:0-CoA for CerS5 and CerS6. All reactions were run in triplicate. Test inhibitors were added, after which reactions were started with the addition of 2.5–25 μg lysate protein (optimised depending on the particular CerS isoform being assayed). […] The reaction mixture was transferred to a glass HPLC vial with 300 μL fused glass insert (Thermo Fisher Scientific) and NBD-dihydroceramide reaction products were analysed on a Thermo Scientific Surveyor HPLC connected to a Shimadzu RF-10AXL fluorescent detector (set to gain of 3). […] The gradient started at 20:80 A/B, increasing to 5:95 A/B over 2 min, then to 100% B over 6 min. The gradient was then held at 100% B for 2 min, before re-equilibration to 20:80 A/B for a further 2 min. Peak areas were integrated using Xcalibur software (Thermo Fisher Scientific).

CerS1 = molecular target: T2, CerS1 (Homo sapiens, UniProt P27544); assay: Ceramide synthase assay, HPLC-based with fluorescent NBD-dihydrosphingosine, C18:0-CoA; extracts of HEK293 cells expressing human CerS1; design: host or cells: HEK293
T2 sequence (P27544 1-350): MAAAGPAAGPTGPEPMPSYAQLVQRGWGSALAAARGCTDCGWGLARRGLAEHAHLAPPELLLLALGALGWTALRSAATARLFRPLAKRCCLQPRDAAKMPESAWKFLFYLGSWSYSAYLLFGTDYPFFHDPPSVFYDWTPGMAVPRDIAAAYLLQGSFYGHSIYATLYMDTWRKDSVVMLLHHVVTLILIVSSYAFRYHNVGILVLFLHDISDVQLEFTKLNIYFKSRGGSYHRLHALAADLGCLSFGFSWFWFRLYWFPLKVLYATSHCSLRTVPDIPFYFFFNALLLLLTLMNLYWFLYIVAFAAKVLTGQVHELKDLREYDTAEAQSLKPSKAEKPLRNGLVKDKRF
Procedure: as §1, §2

human CerS6 = molecular target: T3, human CerS6 (Homo sapiens, UniProt Q6ZMG9); assay: Ceramide synthase assay, NBD-dihydrosphingosine, C16:0-CoA; HEK293 cells expressing human CerS6; settings: inhibitor range 10 nM–100 μM; read-out: IC50 hCerS6
T3 construct: host or cells: HEK293
T3 sequence (Q6ZMG9 1-384): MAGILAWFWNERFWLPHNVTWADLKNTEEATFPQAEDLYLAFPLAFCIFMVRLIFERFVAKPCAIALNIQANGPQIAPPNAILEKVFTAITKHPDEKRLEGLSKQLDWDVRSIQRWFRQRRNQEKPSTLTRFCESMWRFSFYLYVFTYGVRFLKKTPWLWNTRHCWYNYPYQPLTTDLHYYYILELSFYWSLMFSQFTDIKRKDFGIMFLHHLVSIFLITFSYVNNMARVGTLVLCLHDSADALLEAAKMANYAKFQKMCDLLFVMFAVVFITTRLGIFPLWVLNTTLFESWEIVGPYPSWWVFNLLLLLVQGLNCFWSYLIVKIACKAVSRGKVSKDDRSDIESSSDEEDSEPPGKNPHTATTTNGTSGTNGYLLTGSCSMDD
Procedure: Ceramide synthase assays were carried out using an HPLC-based assay with a fluorescent NBD-dihydrosphingosine substrate. All cell lines used for these assays were originally sourced from ATCC. […] Human CerS expression plasmids (pCMV6 plasmids from Origene) were transfected using FuGene-6 transfection reagent, and cells were harvested 24 h after transfection in 20 mM Hepes pH 7.4, 10 mM KCl, 1 mM dithiothreitol, 3 mM β-glycerophosphate, and EDTA-free complete protease inhibitor cocktail (Roche). Cells were sonicated in a Diagenode Bioruptor sonicating bath for 5 min, after which cell extracts were cleared by centrifugation at 800 × g for 10 min. Protein concentration in the supernatant was assayed using the bicinchoninic acid (BCA) assay, and the supernatant stored at −80 °C. COS cells were infected with lentiviral constructs expressing murine CerS1, 2, or 5, then homogenised as described above.
The reaction buffer consisted of 20 mM Hepes pH 7.4, 25 mM KCl, 2 mM MgCl2, 0.5 mM dithiothreitol, 0.1% fatty acid free BSA, 10 μM NBD-dihydrosphingosine and 50 μM fatty acid free BSA. C18:0-CoA was used as the fatty acyl substrate for CerS1 and CerS4; C24:1-CoA for CerS2; and C16:0-CoA for CerS5 and CerS6. All reactions were run in triplicate. Test inhibitors were added, after which reactions were started with the addition of 2.5–25 μg lysate protein (optimised depending on the particular CerS isoform being assayed). Assays were run for 30 min at 37 °C, and stopped with the addition of 200 μL methanol. The reaction mixture was transferred to a glass HPLC vial with 300 μL fused glass insert (Thermo Fisher Scientific) and NBD-dihydroceramide reaction products were analysed on a Thermo Scientific Surveyor HPLC connected to a Shimadzu RF-10AXL fluorescent detector (set to gain of 3). […] Data was acquired over a 12 min chromatography run using: solvent A, 0.2% formic acid, 2 mM ammonium formate in water; solvent B, 0.2% formic acid, 1 mM ammonium formate in methanol. The gradient started at 20:80 A/B, increasing to 5:95 A/B over 2 min, then to 100% B over 6 min. The gradient was then held at 100% B for 2 min, before re-equilibration to 20:80 A/B for a further 2 min. Peak areas were integrated using Xcalibur software (Thermo Fisher Scientific).

[1] = inhibitor range 10 nM–100 μM, read-out: IC50 hCerS1

Structure (SMILES) | IC50 (human CerS2) | IC50, all CerS isoforms (CerS1; all CerS isoforms, in words) | IC50 (CerS1; [1]) | IC50 (human CerS6) | IC50 (CerS1; read-out: IC50 for inhibition of CerS1)
CCCC[C@@H](C)[C@@H](OC(=O)C[C@@H](CC(=O)O)C(=O)O)[C@H](C[C@@H](C)C[C@H](O)CCCC[C@@H](O)C[C@H](O)[C@H](C)N)OC(=O)C[C@@H](CC(=O)O)C(=O)O [FB1, reference compound] | 0.15 ± 0.08 µM | sub-micromolar | 220 ± 50 nM | 0.29 ± 0.05 µM | –
CCCCCCCCc1ccc(CCC(N)(CO)CO)cc1 [FTY720, reference compound] | 19.1 ± 0.1 µM | – | – | 5.8 ± 0.2 µM | –
C[C@@](N)(CO)CCc1ccc(OCc2ccccc2)cc1 [G024, (2S)-2-amino-4-(4′-benzyloxyphenyl)-2-methyl-1-butanol] | 14.5 ± 0.09 µM | – | 6000 ± 100 nM | 8.5 ± 0.13 µM | –
C[C@@](N)(CO)CCc1ccc(OCc2ccc(Cl)c(Cl)c2)cc1 [P053, (S)-2-amino-4-(4-(3,4-dichlorobenzyloxy)phenyl)-2-methylbutan-1-ol] | 28.6 ± 0.15 µM | – | 540 ± 60 nM | 11.4 ± 0.17 µM | 500 nM
